Values of other authors as cited in paper PMC2728785 (Biomaterials, 2009).
Blank lines part the entries; values can stand above or below the molecule they belong to.

What was measured:
[1] = versus unmodified bovine hemoglobin

degradation rate relative to the less hindered cysteamine linker (disulfide bond prepared from the sterically hindered linker): about 100 times slower
Molecule: CC(C)(S)CN [1-amino-2-methyl-2-propanethiol]

Molecule: 12 copies of a 5 kDa PEG conjugated to bovine hemoglobin: PEGylated bovine hemoglobin from the literature
increase of blood half-life [1]: 14 factor
increase of systemic availability [1]: 8 factor

Molecule: NCCS [cysteamine linker, cysteamine]
t1/2 of GSH-dependent disulfide degradation (disulfide bond prepared from the linker): 3 min
